Structures can show the parent of a compound that is named as a salt.
Columns and labels:
[1] = test system: Plasmodium cynomolgi Berok K4 asexual blood stage; assay: EC50 asexual blood stage growth
Protocol: (§1)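 The Reference Compound Library was tested by 10-point 3-fold dose response against P. cynomolgi Berok K4 asexual blood stages (SYBR proliferation assay, mefloquine background control). Culture medium contained 0.5% AlbuMAX or 20% M. fascicularis serum. P. falciparum 3D7 was tested in a 72-h SYBR Green assay with 0.5% AlbuMAX. Values are geometric mean EC50 over independent experiments; 10 uM is the top dose.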

[2] = test system: Plasmodium falciparum 3D7 asexual blood stage; assay: EC50 asexual blood stage growth; settings: serum: 0.5% AlbuMAX
Protocol: as §1

[3] = test system: Plasmodium vivax liver stage (primary human hepatocyte culture)
Protocol: (§2)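 Dose-response of P. vivax liver stages in primary human hepatocytes, with 8 points (10 uM-[…], v1) or 12 points in duplicate (50 uM-280 pM, v2). Read-out is high-content imaging of schizont net growth area, hypnozoite quantity and hepatic nuclei. EC50 and CC20 (20% nuclei loss) were fitted in CDD Vault from the highest-quality independent experiment; toxic-dose bell-shaped points were masked. '>' marks the highest concentration with less than 50% activity, and ND means a non-sigmoidal curve.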

[4] = test system: Plasmodium vivax liver stage (primary human hepatocyte culture); assay: maximum inhibition of schizont net growth area; higher = more active
Protocol: as §2

[5] = test system: primary human hepatocytes; assay: CC20 hepatic nuclei (20% reduction); higher = less toxic
Protocol: as §2

[6] = serum: 20% M. fascicularis serum
[7] = P. vivax isolate: Pv914, hepatocyte lot: BGW, assay mode: Prophylactic, 6-day
[8] = P. vivax isolate: Pv772, hepatocyte lot: BGW, assay mode: Prophylactic, 6-day
[9] = P. vivax isolate: IVS17-02, hepatocyte lot: PDC, assay mode: Radical Cure, 8-day (treatment from day 5 post-infection)
[10] = P. vivax isolate: Pv360, hepatocyte lot: UBV, assay mode: Prophylactic, 6-day
[11] = P. vivax isolate: Pv357, hepatocyte lot: UBV, assay mode: Radical Cure, 8-day (treatment from day 5 post-infection)
[12] = P. vivax isolate: Pv458, hepatocyte lot: UBV, assay mode: Radical Cure, 8-day (treatment from day 5 post-infection)
[13] = P. vivax isolate: Pv914, hepatocyte lot: BGW, assay mode: Radical Cure, 8-day (treatment from day 5 post-infection)
[14] = P. vivax isolate: Pv836, hepatocyte lot: BGW, assay mode: Radical Cure, 8-day (treatment from day 5 post-infection)

Row | Structure (SMILES) | EC50 asexual blood stage growth ([1]; serum: 0.5% AlbuMAX) | EC50 asexual blood stage growth [1, 6] | EC50 asexual blood stage growth [2] | also measured
1 | CC(C)(C)NCc1cc(Nc2ccnc3cc(Cl)ccc23)ccc1F | 77.4 nM | 38.8 nM | 9.8 nM | 
2 | CC(C)(C)NCc1cc(C(C)(C)C)cc(-c2ccc(Cl)cc2)c1O | 2 nM | 6.8 nM | 14.1 nM | 
3 | Cc1nn(C)c(NC(=O)Cn2c(C(C)C)nc3ccccc32)c1-c1ccc(Cl)cc1F [21A092] | 7 nM | 79.4 nM | 14.8 nM | 
4 | Cc1c(Oc2cnc(C(=O)N3CC(C)(O)C3)cn2)ccc2c1B(O)OC2 [AN762] | 1750 nM | 2200 nM | 101 nM | 
5 | Cc1c(CCO)sc[n+]1CCCCCCCCCCCC[n+]1csc(CCO)c1C [Albitiazolium] | 367 nM | 144 nM | 14.4 nM | 
6 | c1cc(C2CCC3(CC2)OOC2(O3)C3CC4CC(C3)CC2C4)ccc1OCCN1CCOCC1 (stereo not drawn) [Artefenomel] | 3.4 nM | 2.3 nM | 42.4 nM | 
7 | CC1CCC2C(C)C(=O)OC3OC4(C)CCC1C32OO4 (stereo not drawn) [Artemisinin] | 7.3 nM | 9.4 nM | 94.8 nM | 
8 | CC1CCC2C(C)C(N3CCS(=O)(=O)CC3)OC3OC4(C)CCC1C32OO4 (stereo not drawn) [Artemisone] | 1 nM | 0.6 nM | 5 nM | 
9 | CC1CCC2C(C)C(O)OC3OC4(C)CCC1C32OO4 (stereo not drawn) [Artenimol] | 0.6 nM | 0.5 nM | 6.5 nM | 
10 | CC(C)(N)CNC(=O)CC1CCC2(CC1)OOC1(O2)C2CC3CC(C2)CC1C3 (stereo not drawn) [Arterolane] | 1.4 nM | 1 nM | 7.8 nM | 
11 | CC1CCC2C(C)C(OC(=O)CCC(=O)O)OC3OC4(C)CCC1C32OO4 (stereo not drawn) [Artesunate] | 6.2 nM | 3 nM | 41.3 nM | 
12 | O=C1C(O)=C([C@H]2CC[C@H](c3ccc(Cl)cc3)CC2)C(=O)c2ccccc21 [Atovaquone] | 1 nM | 1.7 nM | 0.9 nM | 
13 | CCN(CC)CCCC(C)Nc1ccnc2cc(Cl)ccc12 (stereo not drawn) [Chloroquine] | 183 nM | 32.8 nM | 82.2 nM | 
14 | CC1Cc2c([nH]c3cc(Cl)c(F)cc23)C2(N1)C(=O)Nc1ccc(Cl)cc12 (stereo not drawn) [Cipargamin] | 3.3 nM | 15.4 nM | 1.4 nM | 
15 | CC1CCCC(CC2Cc3cc(O)cc(O)c3C(=O)O2)O1 (stereo not drawn) [Cladosporin] | 124 nM | 1430 nM | 75.8 nM | 
16 | CCC[C@@H]1C[C@@H](C(=O)N[C@@H]([C@H]2O[C@H](SC)[C@H](O)[C@@H](O)[C@H]2O)[C@H](C)Cl)N(C)C1 [Clindamycin] | > 10000 nM | 9210 nM | > 10000 nM | 
17 | CC1CC(C)C(=O)C(C(O)CC2CC(=O)NC(=O)C2)C1 (stereo not drawn) [Cyclohexamide] | 35.2 nM | 40.1 nM | 282 nM | 
18 | Cc1cc(Nc2ccc(C(F)(F)F)nc2)n2nc(C(C)(F)F)nc2n1 [DSM421] | 60.5 nM | 59.5 nM | 35.1 nM | 
19 | Nc1ccc(S(=O)(=O)c2ccc(N)cc2)cc1 [Dapsone] | > 10000 nM | > 10000 nM | > 10000 nM | 
20 | CC(=O)N(O)CCCCCNC(=O)CCC(=O)N(O)CCCCCNC(=O)CCC(=O)N(O)CCCCCN [Deferoxamine] | > 10000 nM | > 10000 nM | > 10000 nM | 
21 | CC12CCC3C(CC=C4CC(OS(=O)(=O)O)CCC43C)C1CCC2=O (stereo not drawn) [Dehydroepiandrosterone sulphate] | > 10000 nM | > 10000 nM | > 10000 nM | 
22 | C[C@H]1c2cccc(O)c2C(=O)C2=C(O)[C@]3(O)C(=O)C(C(N)=O)=C(O)[C@@H](N(C)C)C3[C@@H](O)C21 (stereo partly drawn) [Doxycycline hydrochloride] |  |  |  | EC50 hypnozoite quantity [3, 7]: > 10000 nM; EC50 schizont net growth area [3, 7]: > 370 nM; maximum inhibition [4, 7]: 68.3%; CC20 hepatic nuclei [5, 7]: > 10000 nM
23 | CCC(C)C1OC2(CCC1C)CC1CC(CC=C(C)C(OC3CC(OC)C(OC4CC(OC)C(O)C(C)O4)C(C)O3)C(C)C=CC=C3COC4C(O)C(C)=CC(C(=O)O1)C34O)O2 (stereo not drawn) [Ivermectin] |  |  |  | EC50 hypnozoite quantity [3, 8]: > 10000 nM; EC50 schizont net growth area [3, 8]: > 3330 nM; maximum inhibition [4, 8]: 69.8%; CC20 hepatic nuclei [5, 8]: > 10000 nM
24 | CC1(C)c2nc(-c3ccc(F)cc3)c(Nc3ccc(F)cc3)n2CCN1C(=O)CN [KAF156] |  |  |  | EC50 hypnozoite quantity [3, 9]: > 1000 nM; EC50 schizont net growth area [3, 9]: 330 nM; EC50 hypnozoite quantity [3, 10]: 32.9 nM; EC50 schizont net growth area [3, 10]: 14.1 nM; maximum inhibition [4, 9]: 93.2%; maximum inhibition [4, 10]: 103%; CC20 hepatic nuclei [5, 9]: > 1000 nM; CC20 hepatic nuclei [5, 10]: > 10000 nM
25 | CCC(C(=O)C(C)C(O)C(C)CCc1ccc(C)c(O)c1C(=O)[O-])C1OC(CC)(C2CCC(O)(CC)C(C)O2)CC1C.[Na+] (stereo not drawn) [Lasalocid-A] |  |  |  | EC50 hypnozoite quantity [3, 11]: 1050 nM; EC50 schizont net growth area [3, 11]: 43.1 nM; maximum inhibition [4, 11]: 100%; CC20 hepatic nuclei [5, 11]: > 10000 nM
26 | COC1CC(OC2CC(C3OC(C)(O)C(C)CC3C)OC2C2(C)CCC(C3(C)CCC4(CC(O)C(C)C(C(C)C5OC(O)(CC(=O)O)C(C)C(OC)C5OC)O4)O3)O2)OC(C)C1OC.N (stereo not drawn) [Maduramicin] |  |  |  | EC50 hypnozoite quantity [3, 12]: 22.5 nM; EC50 schizont net growth area [3, 12]: 0.705 nM; maximum inhibition [4, 12]: 101%; CC20 hepatic nuclei [5, 12]: 2590 nM
27 | CCC(C(=O)O)C1OC(C(C)C(O)C(C)C(=O)C(CC)C2OC3(C=CC(O)C4(CCC(C)(C5CCC(O)(CC)C(C)O5)O4)O3)C(C)CC2C)C(C)CC1C (stereo not drawn) [Narasin] |  |  |  | EC50 hypnozoite quantity [3, 12]: 64.6 nM; EC50 schizont net growth area [3, 12]: 7.5 nM; maximum inhibition [4, 12]: 101%; CC20 hepatic nuclei [5, 12]: 8800 nM
28 | N=C(N)c1ccc(OCCCCCOc2ccc(C(=N)N)cc2)cc1 [Pentamidine isethionate] |  |  |  | EC50 hypnozoite quantity [3, 7]: 5540 nM; EC50 schizont net growth area [3, 7]: 551 nM; EC50 hypnozoite quantity [3, 13]: > 50000 nM; EC50 schizont net growth area [3, 13]: 8390 nM; maximum inhibition [4, 7]: 99.6%; maximum inhibition [4, 13]: 94.4%; CC20 hepatic nuclei [5, 7]: 5540 nM; CC20 hepatic nuclei [5, 13]: > 5560 nM
29 | CCC(C(=O)O)C1CCC(C)C(C(C)C(O)C(C)C(=O)C(CC)C2OC3(C=CC(O)C4(CCC(C)(C5CCC(O)(CC)C(C)O5)O4)O3)C(C)CC2C)O1 (stereo not drawn) [Salinomycin] |  |  |  | EC50 hypnozoite quantity [3, 14]: 112 nM; EC50 schizont net growth area [3, 14]: 40.2 nM; maximum inhibition [4, 14]: 102%; CC20 hepatic nuclei [5, 14]: > 10000 nM

Reference: the supplement of paper PMC8497498
